Data published in patent publication US8252796B2, “1-butyl-2-hydroxyaralkyl piperazine derivatives and the uses as anti-depression medicine thereof” (CSPC Zhonggi Pharmaceutical Technology (Shijiazhuang) Co. …, priority 2008, dated 2012).

What was measured:
Format in all cases: biochemical
[1] = biological target: T1, DA reuptake, Rat striatum synaptosome (Rattus norvegicus, UniProt P23977); test: DA reuptake, optical isomers (Example 37); settings: 15 min/37° C.
T1 construct: Rat striatum; from tissue; host or cells: rat striatum synaptosomes
T1 sequence (P23977 whole entry): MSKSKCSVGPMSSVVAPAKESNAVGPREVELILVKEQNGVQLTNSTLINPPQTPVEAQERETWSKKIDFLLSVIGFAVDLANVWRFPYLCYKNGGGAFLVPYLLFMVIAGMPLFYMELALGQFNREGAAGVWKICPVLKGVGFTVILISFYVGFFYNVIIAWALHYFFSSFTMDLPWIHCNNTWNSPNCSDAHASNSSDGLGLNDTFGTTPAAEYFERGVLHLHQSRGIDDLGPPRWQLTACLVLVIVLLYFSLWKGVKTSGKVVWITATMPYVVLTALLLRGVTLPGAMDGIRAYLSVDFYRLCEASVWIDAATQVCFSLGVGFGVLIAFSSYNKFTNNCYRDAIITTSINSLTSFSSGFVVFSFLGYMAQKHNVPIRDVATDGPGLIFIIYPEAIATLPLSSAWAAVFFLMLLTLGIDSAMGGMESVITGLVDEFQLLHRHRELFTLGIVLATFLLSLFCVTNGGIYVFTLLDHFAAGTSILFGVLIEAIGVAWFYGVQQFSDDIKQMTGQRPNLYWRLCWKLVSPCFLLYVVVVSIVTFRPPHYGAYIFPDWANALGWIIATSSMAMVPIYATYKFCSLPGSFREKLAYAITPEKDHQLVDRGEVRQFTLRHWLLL
Text: (§1) 3. Experiment Results (IC50 Value was Obtained by Nonlinear Regression Analysis of Inhibition Rate/Concentration Response Curve)

[2] = biological target: T2, NE reuptake, Rat hypothalamus synaptosome (Rattus norvegicus, UniProt Q9WTR4); test: NE reuptake, optical isomers (Example 37); settings: 20 min/37° C.
T2 construct: hypothalamus; from tissue; host or cells: rat hypothalamus synaptosomes
T2 sequence (Q9WTR4 1-597): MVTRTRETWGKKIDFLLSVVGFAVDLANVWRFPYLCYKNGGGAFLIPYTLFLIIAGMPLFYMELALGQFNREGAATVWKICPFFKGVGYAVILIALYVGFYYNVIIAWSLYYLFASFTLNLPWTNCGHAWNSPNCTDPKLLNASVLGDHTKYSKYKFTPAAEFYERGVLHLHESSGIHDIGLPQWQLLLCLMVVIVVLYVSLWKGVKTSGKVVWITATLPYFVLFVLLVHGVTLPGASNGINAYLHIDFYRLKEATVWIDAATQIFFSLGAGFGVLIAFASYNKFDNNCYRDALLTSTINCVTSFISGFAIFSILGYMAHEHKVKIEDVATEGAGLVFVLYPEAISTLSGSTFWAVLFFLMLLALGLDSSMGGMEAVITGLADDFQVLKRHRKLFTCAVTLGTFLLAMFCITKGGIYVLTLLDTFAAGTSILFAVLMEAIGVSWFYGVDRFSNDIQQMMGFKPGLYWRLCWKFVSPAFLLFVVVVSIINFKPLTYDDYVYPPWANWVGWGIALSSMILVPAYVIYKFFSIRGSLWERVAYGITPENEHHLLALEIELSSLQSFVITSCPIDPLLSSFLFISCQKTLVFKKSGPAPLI
Text: as §1

[3] = biological target: T3, 5-HT reuptake, Rat brain synaptosome (Rattus norvegicus, UniProt P31652); test: 5-HT reuptake, optical isomers (Example 37); settings: 15 min/37° C.
T3 construct: Rat brain; from tissue; host or cells: rat brain synaptosomes
T3 sequence (P31652 whole entry): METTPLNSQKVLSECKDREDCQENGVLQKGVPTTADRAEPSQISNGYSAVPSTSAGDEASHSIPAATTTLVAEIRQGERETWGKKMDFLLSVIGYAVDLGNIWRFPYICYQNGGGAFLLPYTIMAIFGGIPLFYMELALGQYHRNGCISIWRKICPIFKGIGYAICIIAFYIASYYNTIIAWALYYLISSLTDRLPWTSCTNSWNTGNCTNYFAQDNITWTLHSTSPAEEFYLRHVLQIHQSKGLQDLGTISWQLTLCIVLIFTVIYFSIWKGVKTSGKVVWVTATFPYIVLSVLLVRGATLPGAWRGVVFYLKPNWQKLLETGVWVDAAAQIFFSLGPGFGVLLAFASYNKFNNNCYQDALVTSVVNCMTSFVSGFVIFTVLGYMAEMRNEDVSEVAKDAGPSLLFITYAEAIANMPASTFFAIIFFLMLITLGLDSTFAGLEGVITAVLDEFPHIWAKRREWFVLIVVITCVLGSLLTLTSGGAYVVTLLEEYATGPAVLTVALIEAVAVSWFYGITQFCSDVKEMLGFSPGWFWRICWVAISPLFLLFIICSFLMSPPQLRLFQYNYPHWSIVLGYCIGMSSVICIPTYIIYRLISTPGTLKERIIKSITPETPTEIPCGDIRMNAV
Text: as §1

IC50 [1] [nM]	IC50 [2] [nM]	IC50 [3] [nM]	SMILES
1100	1400	3100	CCCCC(C(O)c1ccc2c(Cl)c(OC)ccc2c1)N1CCN(Cc2ccccc2)CC1 (single isomer, unassigned) [IX-24]
670	140	830	CCCCC(C(O)c1ccc2c(Cl)c(OC)ccc2c1)N1CCN(Cc2ccccc2)CC1 [IX-25, (1R,2S)-N^1-benzyl-N^4-[1-butyl-2-(5′-chloro-6′-methoxyl-2′-naphthyl)hydroxyethyl]piperazine]
1100	1200	1200	CCCCC(C(O)c1ccc2c(Cl)c(OC)ccc2c1)N1CCN(Cc2ccccc2)CC1 [IX-26, (1R,2R)-N^1-benzyl-N^4-[1-butyl-2-(5′-chloro-6′-methoxyl-2′-naphthyl)hydroxyethyl]piperazine]
